Measurements as given in US20110015246A2, “LOFEXIDINE ENANTIOMERS FOR USE AS A TREATMENT FOR CNS DISEASE AND PATHOLOGIES AND ITS CHIRAL SYNTHESIS” (Agean LLC, priority 2006, published 2011).

What was measured:
[1] = effect on blood pressure and bradycardiac activity (peripheral side effects); type: in vivo
[2] = test system: α2-adrenergic binding sites in rat brain membranes; test: binding to α2-adrenergic binding sites in rat brain membranes
[3] = test system: α1-adrenergic receptors in rat brain membranes; test: binding to α1-adrenergic receptors in rat brain membranes
[4] = test system: brain adrenergic receptors; test: potency at brain adrenergic receptors involved in opioid detoxification; type: binding
[5] = test system: pentobarbitone anesthetized normotensive rats; test: mean arterial pressure and heart rate after intravenous administration in pentobarbitone anesthetized normotensive rats; type: in vivo, rat
pithed rat = test: electrical stimulation-evoked heart rate and diastolic pressure increase in the pithed rat; type: in vivo
pithed normotensive rats = test: pressor effects after intravenous administration in pithed normotensive rats; type: in vivo, rat
[6] = chills, vomiting, sweating, stomach cramps, diarrhea, muscle pain, runny nose and eyes; cited from earlier work

CC(Oc1c(Cl)cccc1Cl)C1=NCCN1 (single isomer, unassigned; (+)) [(+)-lofexidine, 2-[1-(2,6-dichlorophenoxy)ethyl]-4,5-dihydro-1H-Imidazole]
peripheral side effects on blood pressure ([1]; compared to (±)-lofexidine): considerably lower
bradycardiac activity ([1]; in vivo): practically no effect
effect on reducing blood pressure ([1]; in vivo): practically no effect
potency at α2-adrenergic receptors, times less potent than (−)-lofexidine ([2]; (+) vs (−)): nine
potency at α1-adrenergic receptors, times less potent than (−)-lofexidine ([3]; rat brain membranes, (+) vs (−)): four

CC(Oc1c(Cl)cccc1Cl)C1=NCCN1 (single isomer, unassigned; (-)) [(−)-lofexidine, 2-[1-(2,6-dichlorophenoxy)ethyl]-4,5-dihydro-1H-Imidazole]
potency at brain adrenergic receptors compared with (+)-lofexidine [4]: more potent
effectiveness in decreasing heart rate relative to (+)-lofexidine [5]: twenty
effectiveness in decreasing mean arterial pressure relative to (+)-lofexidine [5]: twenty
affinity for α2-adrenergic binding sites relative to the (+)-enantiomer (times higher) ([2]; (−) vs (+)): about nine
potency in decreasing the increased heart rate evoked by electrical stimulation relative to (+)-lofexidine (pithed rat): thirty
impairment of electrical stimulation-induced increase in diastolic pressure (pithed rat; compared with (+)-lofexidine): more effectively unpaired
affinity for α1-adrenergic receptors relative to the (+)-enantiomer (times greater) ([3]; (−) vs (+)): about four
doses eliciting pressor effects, times lower than (+)-lofexidine (pithed normotensive rats): 20 times

CC(Oc1c(Cl)cccc1Cl)C1=NCCN1 (racemic) [Lofexidine, 2-[1-(2,6-dichlorophenoxy)ethyl]-4,5-dihydro-1H-Imidazole]
reducing the symptoms associated with heroin withdrawal [6]: effective
